Measurements: patent US20260132165A1, “MODIFIED NUCLEOSIDE ANALOGUE AND USE THEREOF, AND NUCLEOSIDE ANALOGUE-CONTAINING DOUBLE-STRANDED OLIGONUCLEOTIDE AND USE THEREOF” (RIGERNA THERAPEUTICS (BEIJING) CO., LTD., priority 2023, published 2026)
Strand notation (5' to 3'): a small letter for the sugar, then the base; units joined by * are phosphorothioate-linked, units joined directly phosphodiester-linked; [ ] holds rarer units or linkages, { } end groups; capitals alone tell only the bases. [Uhd] = commercial nucleoside analogue vector Uhd (Shanghai Hongene), the reference conjugate, placed in the sense strand; [NM031] = nucleoside analogue NM031 of the disclosure, C16 lipid conjugate (uridine-based); {VP} = vinylphosphonate on the antisense 5' end; e = 2'-O-(2-methoxyethyl) (MOE); m = 2'-O-methyl; f = 2'-fluoro

Columns and labels:
target gene SOD1 [1] = assay: Test Example 4: lipid conjugated siRNA sequences with different carbon chain lengths, SOD1 in mouse brain, lateral ventricle administration; assay type: in vivo, C57BL/6j mice; set-up: Right hemisphere Mean value of inhibition rate / Left hemisphere Mean value of inhibition rate: unit not given here; conditions: D5; for Left hemisphere Mean value of inhibition rate: left hemisphere (non-administration side); for Left hemisphere Mean value of inhibition rate / Right hemisphere Mean value of inhibition rate: lateral ventricle; for Right hemisphere Mean value of inhibition rate: right hemisphere (administration side)
Description: 6-8 Week-old C57BL/6j mice were randomly grouped by body weight. Mice in each group were administered with siRNA by lateral ventricle administration, with an administration dose per mouse depending on a specific test. Taking Bregma in mouse brain as point 0 (origin), coordinates of right ventricle were found using the cerebral stereotaxic apparatus and position was marked on surface of skull (position of lateral ventricle was AP (anteroposterior, bregma anterior and posterior): −0.58 mm, ML (mediolateral, left and right of middle raphe): −1.2 mm, DV (dorsoventral, up and down cerebral dura mater plane): −2.2 mm). A dental electric drill was used to drill in the skull above a position of interest, and then medicament was injected into the lateral ventricle by a micro-dosing pump, wherein a total injection volume was 5 μL, and injection duration was 10 min. Needle was retained for 5 min after completion of injection, and then slowly withdrawn. Afterwards, needle hole was sealed with biomedical glue, and then head skin was adhered. After animals woke up, the animals were returned back to animal house and further fed. PBS control group was administered with the same volume of siRNA-free PBS solution. The day of administration was recorded as 0 day (D0), and the mice were sacrificed at observation point after the administration. Different parts of brain region were respectively taken and stored in the RNAlater.
(§1) RNA extraction: the above tissue samples were taken out from the RNAlater, and smashed for 60 s in Tissuelyser type II full-automatic tissue homogenizer, and total RNAs of various tissue samples were extracted using the full-automatic nucleic acid extraction instrument and the nucleic acid extraction kit from Zhejiang Hanwei Science and Technology Co. Ltd. according to methods described in instructions.
(§2) Reverse transcription reaction: 1 μg of the extracted total RNAs of the tissue samples were taken, and configured into 20 μL of reverse transcription system according to a method described in kit instructions by using a reverse transcription kit (Reverse Transcription System, A3500) from Promega Corporation and selecting Oligo (dT)15 reverse transcription primers, and the reverse transcription reaction was completed. After the reaction was ended, 80 μL of RNase-Free water was added into the reverse transcription system to provide cDNA solution for Real-time PCR detection.
(§3) Real-time PCR detection: 20 μL of Real-time PCR reaction system per PCR detection well was configured according to a method described in kit instructions using SYBR™ Select Master Mix (Catalog number: 4472908) reagent from ABI company. Each detection system contained 5 μL of cDNA template obtained from the above reverse transcription reaction, 10 μL of SYBR™ Select Master Mix, 0.5 μL of 10 μM upstream primers, 0.5 μL of 10 μM downstream primers, and 4 μL of RNase-Free H2O. The configured reaction system was subjected to Real-time PCR amplification on ABI StepOnePlus PCR instrument by a three-step method, wherein an amplification procedure was pre-denaturation at 95° C. for 10 min, then denaturation at 95° C. for 30 s, annealing at 60° C. for 30 s, and extension at 72° C. for 30 s; and processes of denaturation, annealing, and extension were repeated for 40 cycles. Gene expression differences were calculated by the ΔΔCt method after completion of the procedure.
In the real-time fluorescence quantitative PCR method, relative quantitative calculation of remaining expression level and inhibition rate of gene mRNA of interest in various test groups was performed by the ΔΔCt method, and the calculation method is as follows: […]

target gene SOD1 [2] = assay: Test Example 12: inhibitory activity of lipid conjugated siRNA sequence on SOD1 in mouse eyes (intravitreal administration); assay type: in vivo, C57BL/6J mice; conditions: intravitreal, right eye, 7.5 μg per mouse, D14
Description: as §1, §2, §3
(§4) In the real-time fluorescence quantitative PCR method, relative quantitative calculation of remaining expression level and inhibition rate of gene mRNA of interest in various test groups was performed by the ΔΔCt method, and the calculation method is as follows:
The present test example evaluated, by an evaluation method for inhibitory activity on a target gene in mice, the inhibitory activity of siRNA sequence RZ899091 with the sense strand with the NM074 conjugation at Position 4 and siRNA reference sequence RX899121 without vector conjugation on the target gene SOD1 of interest in mice.
6-8 Week-old C57BL/6J mice were randomly grouped by body weight, 5 in each group and 3 groups in total. Mice in each group were administered with the above siRNA conjugate by intravitreal administration to right eyes of the mice, with an administration dose of 7.5 μg per mouse, and an administration volume of 2 μL. PBS control group was administered with the same volume of siRNA conjugate-free PBS solution. The day of administration was recorded as D0, and the mice were sacrificed at D14 after administration. Administration-side ocular retina, choroid, cornea, sclera and other tissues were respectively taken and stored in the RNAlater. RNA extraction, reverse transcription, and real-time fluorescence quantitative detection were performed on various tissues according to the above method, and gene expression differences were calculated by the above ΔΔCt method.

target gene SOD1 [3] = assay: Test Example 5: inhibitory activity of lipid conjugated siRNA sequences on SOD1 by intrathecal administration to rats; assay type: in vivo, SD rats; set-up: key to Lumbar segmen Mean value of inhibition rate / Cortex Mean value of inhibition rate / Thoracic segment Mean value of inhibition rate / Cervical segment Mean value of inhibition rate / Cerebellum Mean value of inhibition rate / Hippocampus Mean value of inhibition rate: inhibition rate of SOD1 mRNA, calculated by the ΔΔCt method; conditions: intrathecal, 900 μg per rat, D7; for Cortex Mean value of inhibition rate: cerebral cortex; for Cervical segment Mean value of inhibition rate: spinal cord cervical segment; for Lumbar segmen Mean value of inhibition rate: spinal cord lumbar segment; for Thoracic segment Mean value of inhibition rate: spinal cord thoracic segment
Description: 6-8 Week-old SD rats were randomly grouped by body weight. Rats in each group were administered with siRNA by intrathecal administration, with an administration dose of 900 μg per rat. Injection was administered from rat spinal cord L5-L6, with an administration volume of 40 μL. Needle was retained for 2 min after completion of injection, and then slowly withdrawn. PBS control group was administered with the same volume of siRNA conjugate-free PBS solution. The day of administration was recorded as 0 day (D0), and the rats were sacrificed at observation point after administration. Different segments of spinal cord and different regions of brain were respectively taken and stored in the RNAlater.
as §1, §2, §3, §4
The present example evaluated, by an evaluation method for inhibitory activity on a target gene by intrathecal administration to rats, the inhibitory activity of siRNA sequence RZ899060 with the sense strand with the NM031 conjugation at Position 4 and vector-free siRNA sequence RZ899056, and Uhd conjugated siRNA reference sequence RZ899055 on the target gene SOD1 of interest in spinal cord and brain of rats.
6-8 Week-old SD rats were randomly grouped by body weight, 5 per group, 4 groups in total. Rats in each group were dosed with the above siRNA conjugates by intrathecal administration, with an administration dose of 900 μg per rat, and an administration volume of 40 μL. PBS control group was administered with the same volume of siRNA conjugate-free PBS solution. The day of administration was recorded as 0 day (D0), and the rats were sacrificed on D7 after administration. […]

Substance | Left hemisphere Mean value of inhibition rate (target gene SOD1 [1]; 150 μg per mouse) | Right hemisphere Mean value of inhibition rate (target gene SOD1 [1]; 150 μg per mouse) | Cerebellum Mean value of inhibition rate (target gene SOD1 [3]) | Cortex Mean value of inhibition rate (target gene SOD1 [3]) | Hippocampus Mean value of inhibition rate (target gene SOD1 [3]) | Cervical segment Mean value of inhibition rate (target gene SOD1 [3]) | Lumbar segmen Mean value of inhibition rate (target gene SOD1 [3]) | Thoracic segment Mean value of inhibition rate (target gene SOD1 [3]) | also measured
RX599002: vector-free siRNA sequence; SEQ ID NO: 17 / 24 (sense mU*mU*mUmUmAmAfUfCfCfUmCmAmCmUmCmUmAmAmA; antisense {VP}-mU*fU*mUmAmGfAmGmUfGmAmGmGmAfUeUfAmAmAmA*mU*mG) [reference compound] | 55.55 | 74.62 | – | – | – | – | – | – | –
RX899121: siRNA reference sequence without vector conjugation; SEQ ID NO: 25 / 23 (sense mU*mU*mUmUmAmAfUfCfCfUmCmAmCmUmCmUmAmAmA; antisense {VP}-mU*fU*mUmAmGfAmGmUmGmAmGfGmAfUeUfAmAmAmA*mU*mG) [reference compound] | – | – | – | – | – | – | – | – | Choroid % Mean value of inhibition rate (target gene SOD1 [2]; choroid): 3.16%; Cornea and sclera % Mean value of inhibition rate (target gene SOD1 [2]; cornea and sclera): 5.35%; Kidney % Mean value of inhibition rate (target gene SOD1 [2]; kidney): 2.89%; Liver % Mean value of inhibition rate (target gene SOD1 [2]; liver): 5.35%; Retina % Mean value of inhibition rate (target gene SOD1 [2]; retina): 17.47%
RZ899055: Uhd conjugated siRNA reference sequence; SEQ ID NO: 4 / 22 (sense mU*mU*mU[Uhd]mAmAfUfCfCmUmCmAmCmUmCmUmAmAmA; antisense {VP}-mU*fU*mUmAmGfAmGmUmGmAmGmGmAfUmUfAmAmAmA*mU*mG) | – | – | 68.43 | 41.47 | 48.56 | 81.31 | 87.46 | 91.10 | –
RZ899056: vector-free siRNA sequence; SEQ ID NO: 1 / 22 (sense mU*mU*mUmUmAmAfUfCfCmUmCmAmCmUmCmUmAmAmA; antisense {VP}-mU*fU*mUmAmGfAmGmUmGmAmGmGmAfUmUfAmAmAmA*mU*mG) | – | – | 50.22 | 33.88 | 41.25 | 70.86 | 87.58 | 89.69 | –
RZ899077: siRNA sequence with the sense strand with the NM201 (C22) conjugation at Position 4; SEQ ID NO: 19 / 24 (sense UUUNAAUCCUCACUCUAAA; antisense UUUAGAGUGAGGAUUAAAAUG; NM201 (C22) conjugate at sense position 4; modified_base 1..2 OTHER; 2'-methoxy and 5'-thiophosphate modified nucleotides; modified_base 3 OTHER; 2'-methoxy modified nucleotide; modified_base 4 OTHER; n is the synthetic nucleotide analog NM201 as described in the disclosure.; modified_base 5..6 OTHER; 2'-methoxy modified nucleotides; modified_base 7..10 OTHER; 2'-fluoro modified nucleotides; modified_base 11..19 OTHER; 2'-methoxy modified ; modified_base 1 OTHER; 2'-methoxy and 5'-thiovinylphosphonate modified nucleotide; modified_base 2 OTHER; 2'-fluoro and 5'-thiophosphate modified …) | 32.81 | 43.33 | – | – | – | – | – | – | –
RZ899092: siRNA sequence with the sense strand with the NM031 (C16) conjugation at Position 4; SEQ ID NO: 14 / 23 (sense mU*mU*mU[NM031]mAmAfUfCfCfUmCmAmCmUmCmUmAmAmA; antisense {VP}-mU*fU*mUmAmGfAmGmUmGmAmGfGmAfUeUfAmAmAmA*mU*mG) | 60.45 | 79.45 | – | – | – | – | – | – | inhibitory activity compared with the vector-free siRNA sequence RX599002 (target gene SOD1 [1]; left and right hemisphere, lateral ventricle 150 μg per mouse): superior inhibitory activity; activity compared with Uhd conjugated reference sequence RZ899093 and NM200 (C22) conjugated reference sequence RZ899076 (target gene SOD1 [1]; right hemisphere (administration side) and left hemisphere (non-administration side), 150 μg per mouse): substantially comparable activity in the right hemisphere
